Values after ≈ are worked out from the molar mass of the structure shown. Read-outs that look alike come from different tables or passages of the source.
How the values were obtained:
[1] = system: Streptococcus pyogenes C203; test: Protection of mice experimentally infected with S. pyogenes C203; format: in vivo
Experimental: Some of the derivatives of this invention have shown in vivo antimicrobial activity against experimentally-induced infections in laboratory animals. When two doses of test compound were administered to mice experimentally infected with S. pyogenes C203, the activity observed was measured as an ED50 value [effective dose in mg/kg to protect 50% of the test animals: see Warren Wick, et al., J. Bacteriol. 81, 233-235 (1961)].

[2] = system: Staphylococcus aureus X400; test: MIC, standard agar-dilution assay; format: cell-based; conditions: Staphylococcus aureus, X400
Experimental: (§1) The MIC's in Table II were determined by standard agar-dilution assays. The MIC's in Table III were obtained using a conventional broth-dilution microtiter test.

[3] = system: Staphylococcus epidermidis EPI2; test: MIC, standard agar-dilution assay; format: cell-based; conditions: Staphylococcus epidermidis, EPI2
Experimental: as §1

[4] = system: Staphylococcus aureus S13E; test: microbe, parasite or virus in culture; format: cell-based
Experimental: as §1

[5] = system: Staphylococcus epidermidis EPI1; test: microbe, parasite or virus in culture; format: cell-based; conditions: Staphylococcus epidermidis, EPI1
Experimental: as §1

Streptococcus sp. 80 = test: MIC, conventional broth-dilution microtiter test; format: cell-based; conditions: Streptococcus, SP.80
Experimental: (§2) Certain of the derivatives are active against some gram-negative bacteria, such as Pasteurella species. The MIC's in Table II were determined by standard agar-dilution assays. The MIC's in Table III were obtained using a conventional broth-dilution microtiter test.

Mycoplasma synoviae = test: MIC, conventional broth-dilution microtiter test; format: cell-based; conditions: Mycoplasmopsis synoviae
Procedure, shortened: (§3)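 MICs for the two Pasteurella strains and the Mycoplasma strain were read from a broth-dilution microtiter test. The Klebsiella strain was tested on agar instead.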

[6] = system: Pasteurella multocida 68C; test: MIC, conventional broth-dilution microtiter test; format: cell-based; conditions: Pasteurella multocida, 68C
Procedure, shortened: as §3

[7] = system: Pasteurella multocida 17E; test: MIC, conventional broth-dilution microtiter test; format: cell-based; conditions: Pasteurella multocida, 17E
Procedure, shortened: as §3

Staphylococcus aureus = test: MIC, conventional broth-dilution microtiter test; format: cell-based
Experimental: as §2

[8] = system: Pasteurella hemolytica 41D; test: MIC, conventional broth-dilution microtiter test; format: cell-based
Procedure, shortened: as §3

[9] = system: Mycoplasma gallisepticum 41313; test: MIC, conventional broth-dilution microtiter test; format: cell-based; conditions: Mycoplasmoides gallisepticum
Procedure, shortened: as §3

[10] = system: Pasteurella hemolytica 22C; test: MIC, conventional broth-dilution microtiter test; format: cell-based
Procedure, shortened: as §3

Mycoplasma gallisepticum = test: MIC, conventional broth-dilution microtiter test; format: cell-based; conditions: Mycoplasmoides gallisepticum
Procedure, shortened: as §3

[11] = system: Mycoplasma gallisepticum 34159; test: MIC, conventional broth-dilution microtiter test; format: cell-based; conditions: Mycoplasmoides gallisepticum
Procedure, shortened: as §3

Mycoplasma hyorhinis = test: MIC, conventional broth-dilution microtiter test; format: cell-based; conditions: Mycoplasma
Procedure, shortened: as §3

[12] = system: Pasteurella multocida 40G; test: MIC, conventional broth-dilution microtiter test; format: cell-based; conditions: Pasteurella multocida, 40G
Procedure, shortened: as §3

[13] = system: Pasteurella hemolytica 23C; test: MIC, conventional broth-dilution microtiter test; format: cell-based
Procedure, shortened: as §3

[14] = system: Pasteurella multocida 22A; test: MIC, conventional broth-dilution microtiter test; format: cell-based; conditions: Pasteurella multocida, 22A
Procedure, shortened: as §3

[15] = system: Pasteurella multocida 60A; test: MIC, conventional broth-dilution microtiter test; format: cell-based; conditions: Pasteurella multocida, 60A
Procedure, shortened: as §3

[16] = system: Klebsiella pneumoniae KAE; test: MIC, standard agar-dilution assay; format: cell-based
Procedure, shortened: as §3

Escherichia coli EC14 = test: MIC, standard agar-dilution assay; format: cell-based
Experimental: as §2

[17] = system: Staphylococcus aureus V41; test: MIC, standard agar-dilution assay; format: cell-based; conditions: Staphylococcus aureus, V41
Experimental: as §2

Escherichia coli TEM = test: MIC, standard agar-dilution assay; format: cell-based
Procedure, shortened: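 Minimum inhibitory concentrations against Escherichia coli were measured with a standard agar-dilution method. The result for each derivative is the lowest concentration that inhibits bacterial growth, given in ug/mL.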

[18] = system: Staphylococcus aureus X1.1; test: MIC, standard agar-dilution assay; format: cell-based; conditions: Staphylococcus aureus, X1.1
Procedure, shortened: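 Minimum inhibitory concentration against Staphylococcus aureus strain X1.1 was measured with a standard agar-dilution method. The result is reported as the MIC in ug/mL, i.e. the lowest compound concentration in agar that prevents visible growth of this organism.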

[19] = system: Klebsiella pneumoniae X26; test: MIC, standard agar-dilution assay; format: cell-based; conditions: Klebsiella pneumoniae, X26
Procedure, shortened: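 Broth microdilution MICs cover P. hemolytica, P. multocida and M. gallisepticum. The agar-dilution MIC covers K. pneumoniae only.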

[20] = system: Streptococcus pyogenes 9960; test: MIC, standard agar-dilution assay; format: cell-based; conditions: 9960
Experimental: as §2

[21] = system: Streptococcus pneumoniae Park I; test: MIC, standard agar-dilution assay; format: cell-based; conditions: Streptococcus pneumoniae
Experimental: as §2

[22] = system: Streptococcus Group D X66; test: MIC, standard agar-dilution assay; format: cell-based
Experimental: as §2

[23] = system: Streptococcus pyogenes C203; test: MIC, standard agar-dilution assay; format: cell-based; conditions: Streptococcus pyogenes, C203
Experimental: as §2

Pasteurella multocida = test: Pasteurella infection in one-day old chicks; format: in vivo; conditions: subcutaneous, 30 mg/kg × 2, 1 and 4 hours post-challenge
Experimental: Certain of the formula 1 compounds of this invention have also shown in vivo activity against infections induced by gram-negative bacteria. Table V summarizes the results of tests in which illustrative compounds were evaluated against a Pasteurella infection in one-day old chicks. The compounds were administered parenterally after challenge of the chicks with Pasteurella multocida (0.1 ml of a 10^-4 dilution of a twenty-hour tryptose broth culture of an avian P. multocida given subcutaneously). In these tests, unless indicated otherwise, all non-medicated infected chicks died within 24 hours of Pasteurella challenge. In the tests summarized in Table V, the compounds were administered by subcutaneous injection at a dosage of 30 mg/kg, 1 and 4 hours post-challenge of the chicks with P. multocida.

[24] = system: Haemophilus influenzae 76; test: MIC, standard agar-dilution assay; format: cell-based; conditions: agar-dilution; Haemophilus influenzae 76, Ampicillin-resistant strain; read-out: MIC
Experimental: as §1

[25] = system: Haemophilus influenzae C.L.; test: MIC, standard agar-dilution assay; format: cell-based; conditions: Haemophilus influenzae
Experimental: as §1

Row | Structure (SMILES) | MIC [2] [µg/mL] | MIC [3] [µg/mL] | MIC [4] [µg/mL] | MIC [5] [µg/mL] | MIC (Streptococcus sp. 80) [µg/mL] | MIC (Mycoplasma synoviae) [µg/mL] | MIC [6] [µg/mL] | MIC [7] [µg/mL] | MIC (Staphylococcus aureus) [µg/mL] | MIC (Mycoplasma gallisepticum) [µg/mL] | MIC (Mycoplasma hyorhinis) [µg/mL] | MIC [12] [µg/mL] | MIC [14] [µg/mL] | MIC [15] [µg/mL] | MIC [17] [µg/mL] | MIC [18] [µg/mL] | MIC [19] [µg/mL] | MIC [20] [µg/mL] | MIC [21] [µg/mL] | MIC [22] [µg/mL] | other results
1 | CCC1OC(=O)CC(O)C(C)C(OC2OC(C)C(O)C(N(C)C)C2O)C(CCOC(=O)Cc2ccccc2)CC(C)C(=O)C=CC(C)=CC1COC(=O)Cc1ccccc1 (centres unmarked) [Compound 30, 20,23-Di-O-Phenylacetyl-20-dihydro-OMT] | 0.5 (≈ 0.598 µM) | 0.5 (≈ 0.598 µM) | 0.25 (≈ 0.299 µM) | 0.25 (≈ 0.299 µM) | 0.39 (≈ 0.466 µM) | 6.25 (≈ 7.48 µM) | 6.25 (≈ 7.48 µM) | 12.5 (≈ 15 µM) | 1.56 (≈ 1.87 µM) | 0.78 (≈ 0.933 µM) | 50 (≈ 59.8 µM) | 6.25 (≈ 7.48 µM) | 6.25 (≈ 7.48 µM) | 6.25 (≈ 7.48 µM) | 0.25 (≈ 0.299 µM) | 0.25 (≈ 0.299 µM) | 8 (≈ 9.57 µM) | 0.5 (≈ 0.598 µM) | 0.12 (≈ 0.144 µM) | 0.5 (≈ 0.598 µM) | ED50 ([1]; C203, po, read-out: ED50 Oral): > 100 mg/kg; ED50 ([1]; C203, sc, read-out: ED50 Subcutaneous): > 30 mg/kg; MIC ([8]; Pasteurella, 41D): 6.25 µg/mL (≈ 7.48 µM); MIC [9]; 41313: 50 µg/mL (≈ 59.8 µM); MIC ([10]; Pasteurella, 22C): 6.25 µg/mL (≈ 7.48 µM); MIC [11]; 34159: 12.5 µg/mL (≈ 15 µM); MIC ([13]; Pasteurella, 23C): 6.25 µg/mL (≈ 7.48 µM); MIC ([16]; Klebsiella pneumoniae): > 128 µg/mL; MIC (Escherichia coli EC14; Escherichia coli, EC14): > 128 µg/mL; MIC (Escherichia coli TEM; Escherichia coli): 8 µg/mL (≈ 9.57 µM); MIC [23]: 0.25 µg/mL (≈ 0.299 µM); Number of Deaths/Number Treated (Pasteurella multocida): 9/10
2 | CCC1OC(=O)CC(O)C(C)C(OC2OC(C)C(O)C(N(C)C)C2O)C(CCOc2ccccc2)CC(C)C(=O)C=CC(C)=CC1COC(=O)CCc1ccccc1 (centres unmarked) [Compound 33, 20-O-Phenyl-20-dihydro-23-O-phenylpropionyl-OMT] | 2 (≈ 2.48 µM) | 1 (≈ 1.24 µM) | 1 (≈ 1.24 µM) | 1 (≈ 1.24 µM) | 0.097 (≈ 0.12 µM) | 6.25 (≈ 7.73 µM) | 3.12 (≈ 3.86 µM) | 3.12 (≈ 3.86 µM) | 0.78 (≈ 0.965 µM) | 0.78 (≈ 0.965 µM) | 50 (≈ 61.9 µM) | 3.12 (≈ 3.86 µM) | 3.12 (≈ 3.86 µM) | 3.12 (≈ 3.86 µM) | 1 (≈ 1.24 µM) | 1 (≈ 1.24 µM) | 32 (≈ 39.6 µM) | 2 (≈ 2.48 µM) | 0.5 (≈ 0.619 µM) | 1 (≈ 1.24 µM) | ED50 ([1]; C203, mice, oral, mg/kg × 2, doses given 1 and 4 hours postinfection, read-out: ED50 Oral): > 50 mg/kg; ED50 ([1]; C203, sc, mice, subcutaneous, mg/kg × 2, doses given 1 and 4 hours postinfection, read-out: ED50 Subcutaneous): > 10 mg/kg; MIC [24]: > 128 µg/mL; MIC [25]: 128 µg/mL (≈ 158 µM); MIC ([8]; broth-dilution microtiter, Pasteurella hemolytica 41D, read-out: MIC): 25 µg/mL (≈ 30.9 µM); MIC ([9]; broth-dilution microtiter, Mycoplasma gallisepticum 41313, Resistant strain, read-out: MIC): 25 µg/mL (≈ 30.9 µM); MIC ([10]; broth-dilution microtiter, Pasteurella hemolytica 22C, read-out: MIC): 25 µg/mL (≈ 30.9 µM); MIC ([11]; broth-dilution microtiter, Mycoplasma gallisepticum 34159, Resistant strain, read-out: MIC): 12.5 µg/mL (≈ 15.5 µM); MIC ([13]; broth-dilution microtiter, Pasteurella hemolytica 23C, read-out: MIC): 25 µg/mL (≈ 30.9 µM); MIC ([16]; agar-dilution, Klebsiella pneumoniae KAE, read-out: MIC): > 128 µg/mL; MIC (Escherichia coli EC14; agar-dilution, Escherichia coli EC14, read-out: MIC): > 128 µg/mL; MIC (Escherichia coli TEM; agar-dilution, Escherichia coli TEM, read-out: MIC): > 128 µg/mL; MIC [23]: 2 µg/mL (≈ 2.48 µM)

From patent publication US4468511A, “C-20- And C-23-Modified macrolide derivatives” (Eli Lilly and Company, priority 1983, dated 1984)
